Where two headings read alike, the source gives them in different places.
Assays:
[1] = system: Jurkat AP1-luciferase Reporter; assay: DGK AP1-Reporter Assay; assay type: cell-based; conditions: Homo sapiens, Jurkat, read-out: API-Luciferase Reporter IC50, Table 3
Protocol: The Jurkat AP1-luciferase Reporter was generated using the Cignal Lenti AP1 Reporter (luc) Kit from SABiosciences (CLS-011L).
The sample size was 30 nl per well; and one destination plate per source plate. The cell suspensions were prepared by transferring 40 mL cells (2×20 mL) to clean 50 mL conical tubes. The cells were concentrated by centrifugation (1200 rpm; 5 mins; ambient temperature). […] The cell plates were incubated for 20 minutes at 37° C., and 5% CO2.
During the incubation, anti-CD3 antibody (αCD3) solutions were prepared by mixing 3 μl αCD3 (1.3 mg/mL) with 10 mL medium [final conc=0.4 μg/mL]. Next, 1.5 μl αCD3 (1.3 mg/mL) was mixed with 0.5 mL medium [final conc=4 μg/mL]. After 20 minutes, 10 μl medium was added to all wells in column 1, wells A to M, and 10 μl αCD3 (4 μg/mL) per well was added in column 1, rows N to P for reference. Then using a multi-channel pipette, 10 μl αCD3 (0.4 μg/mL) per well was added. The αCD3 stimulated +/− compound-treated cells were incubated at 37° C., 5% CO2 for 6 hours.
During this incubation period. Steady-Glo (Promega E2520) reagent was slowly thawed on to ambient temperature. Next, 20 μl Steady-Glo reagent per well was added using a multi-drop Combi-dispenser. Bubbles were removed by centrifugation (2000 rpm, ambient temperature, 10 sees). The cells were incubated at room temperature for 5 minutes. Samples were characterized by measuring the Relative Light Units (RLU) with an using Envision Plate Reader Instrument on a luminescence protocol.

human DGKζ = human DGKζ (Homo sapiens (Human), UniProt Q13574); assay: DGKζ assay (detergent/lipid micelle substrate); assay type: biochemical; conditions: detergent/lipid micelle substrate; read-out: DGKζ IC50
Method in brief: (§1)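 Enzymes were baculovirus/Sf9 full-length human DGKα or DGKζ with His tag. The substrate was PS/DAG in octyl glucoside micelles, in MOPS pH 7.5 buffer with NaCl, MgCl2, CaCl2 and DTT.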

human DGKα = human DGKα (Homo sapiens (Human), UniProt P23743); assay: biochemical
Method in brief: as §1

[2] = detergent/lipid micelle substrate, read-out: DGKα IC50

Sequence of human DGKζ (Q13574 other isoform, or with tags, fused parts or gaps): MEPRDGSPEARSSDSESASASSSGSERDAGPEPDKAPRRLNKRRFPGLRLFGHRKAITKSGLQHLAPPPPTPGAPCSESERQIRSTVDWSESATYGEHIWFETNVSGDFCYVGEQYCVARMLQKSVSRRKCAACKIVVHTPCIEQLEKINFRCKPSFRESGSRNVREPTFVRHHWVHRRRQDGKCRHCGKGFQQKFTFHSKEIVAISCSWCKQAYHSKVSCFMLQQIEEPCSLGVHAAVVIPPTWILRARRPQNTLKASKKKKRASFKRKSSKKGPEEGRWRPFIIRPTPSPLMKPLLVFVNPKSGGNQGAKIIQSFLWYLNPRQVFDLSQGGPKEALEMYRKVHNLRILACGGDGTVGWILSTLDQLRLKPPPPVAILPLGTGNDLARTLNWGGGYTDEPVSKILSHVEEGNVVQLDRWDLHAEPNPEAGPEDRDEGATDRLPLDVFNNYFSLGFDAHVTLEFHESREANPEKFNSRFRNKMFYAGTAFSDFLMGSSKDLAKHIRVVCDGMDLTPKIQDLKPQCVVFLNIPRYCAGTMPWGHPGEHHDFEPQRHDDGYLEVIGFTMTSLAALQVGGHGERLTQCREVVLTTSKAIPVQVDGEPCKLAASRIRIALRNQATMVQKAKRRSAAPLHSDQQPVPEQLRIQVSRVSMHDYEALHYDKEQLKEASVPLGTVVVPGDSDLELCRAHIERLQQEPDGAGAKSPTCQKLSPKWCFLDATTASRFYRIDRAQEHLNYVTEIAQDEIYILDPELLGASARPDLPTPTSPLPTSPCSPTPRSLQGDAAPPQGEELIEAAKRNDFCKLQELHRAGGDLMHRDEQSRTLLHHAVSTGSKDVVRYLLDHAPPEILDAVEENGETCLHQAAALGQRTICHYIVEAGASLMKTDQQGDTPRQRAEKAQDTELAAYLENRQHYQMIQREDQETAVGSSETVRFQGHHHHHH
Sequence of human DGKα (P23743 other isoform, or with tags, fused parts or gaps): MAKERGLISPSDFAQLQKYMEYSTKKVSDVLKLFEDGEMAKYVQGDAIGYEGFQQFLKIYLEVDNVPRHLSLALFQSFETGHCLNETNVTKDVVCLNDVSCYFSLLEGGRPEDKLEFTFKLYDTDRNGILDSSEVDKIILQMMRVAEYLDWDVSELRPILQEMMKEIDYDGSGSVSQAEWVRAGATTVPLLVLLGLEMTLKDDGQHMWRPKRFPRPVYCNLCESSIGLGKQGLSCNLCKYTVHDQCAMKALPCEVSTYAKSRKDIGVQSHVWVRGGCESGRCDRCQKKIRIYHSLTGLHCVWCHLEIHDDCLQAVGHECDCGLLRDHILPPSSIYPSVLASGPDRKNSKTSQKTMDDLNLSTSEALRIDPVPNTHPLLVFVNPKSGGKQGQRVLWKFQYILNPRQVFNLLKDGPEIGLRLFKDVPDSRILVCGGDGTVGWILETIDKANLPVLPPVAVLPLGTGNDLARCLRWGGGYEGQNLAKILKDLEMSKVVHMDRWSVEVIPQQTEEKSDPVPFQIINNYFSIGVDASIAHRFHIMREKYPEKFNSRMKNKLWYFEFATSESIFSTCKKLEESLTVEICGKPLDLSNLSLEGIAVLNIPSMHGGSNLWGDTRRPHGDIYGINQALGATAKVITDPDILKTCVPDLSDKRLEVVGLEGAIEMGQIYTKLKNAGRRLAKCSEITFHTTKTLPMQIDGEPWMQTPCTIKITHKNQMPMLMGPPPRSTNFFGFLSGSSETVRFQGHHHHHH

| SMILES | IC50 [1] [nM] | IC50 (human DGKζ) [nM] | IC50 (human DGKα; [2]) [nM] | IC50 (human DGKα; DGKα IC50, detergent/lipid micelle substrate) [nM] |
| --- | --- | --- | --- | --- |
| COc1ccccc1C(c1ccc(F)cc1)N1CCN(c2c(C#N)c(=O)n(C)c3ccc(Br)nc23)CC1 (stereo not drawn) [Example 12, 6-bromo-4-{4-[(4-fluorophenyl)(2-methoxyphenyl)methyl]piperazin-1-yl}-1-methyl-2-oxo-1,2-dihydro-1,5-naphthyridine-3-carbonitrile] | 580 | > 81000 | 1000 | – |
| C#CCn1c(=O)c([N+](=O)[O-])c(N2CCN(C(CC)c3ccc(F)cc3)CC2)c2nc(C#N)ccc21 (racemic) [Example 139, 8-{4-[1-(4-fluorophenyl)propyl]piperazin-1-yl}-7-nitro-6-oxo-5-(prop-2-yn-1-yl)-5,6-dihydro-1,5-naphthyridine-2-carbonitrile] | 130 | 910 | 410 | – |
| CC(c1ccc(F)cc1)N1CCN(c2c(C#N)c(=O)n(C)c3ccc(Br)nc23)CC1 (racemic) [Example 22, 6-bromo-4-{4-[1-(4-fluorophenyl)ethyl]piperazin-1-yl}-1-methyl-2-oxo-1,2-dihydro-1,5-naphthyridine-3-carbonitrile] | 1530 | > 81000 | 70 | – |
| Cn1c(=O)c(C#N)c(N2CCN(CC(O)c3ccc(F)cc3)CC2)c2nc(Br)ccc21 (racemic) [Example 28, 6-bromo-4-{4-[2-(4-fluorophenyl)-2-hydroxyethyl]piperazin-1-yl}-1-methyl-2-oxo-1,2-dihydro-1,5-naphthyridine-3-carbonitrile] | 4450 | > 81000 | 1300 | – |
| C#CCn1c(=O)c([N+](=O)[O-])c(N2CCN(C(c3ccc(F)cc3)c3ccccc3OC)CC2)c2nc(C#N)ccc21 (single isomer, unassigned) [Example 131, 8-(4-((4-fluorophenyl)(2-methoxyphenyl)methyl)piperazin-1-yl)-7-nitro-6-oxo-5-(prop-2-yn-1-yl)-5,6-dihydro-1,5-naphthyridine-2-carbonitrile] | 500 | 370 | 11000 | – |
| C#CCn1c(=O)c([N+](=O)[O-])c(N2CCN(C(c3ccc(F)cc3)c3ccccc3O)CC2)c2nc(C#N)ccc21 (racemic) [Example 132, 8-(4-((4-fluorophenyl)(2-hydroxyphenyl)methyl)piperazin-1-yl)-7-nitro-6-oxo-5-(prop-2-yn-1-yl)-5,6-dihydro-1,5-naphthyridine-2-carbonitrile] | 80 | 150 | – | 3300 |
| COCCn1c(=O)c(C#N)c(N2CCN(C(c3ccc(F)cc3)c3ccc(F)cc3OC)CC2)c2nc(Br)ccc21 (racemic) [Example 114, 6-bromo-4-(4-((4-fluoro-2-methoxyphenyl)(4-fluorophenyl)methyl)piperazin-1-yl)-1-(2-methoxyethyl)-2-oxo-1,2-dihydro-1,5-naphthyridine-3-carbonitrile] | 4120 | 100000 | 120000 | – |
| Cn1c(=O)c(C#N)c(N2CCN(Cc3ccc(C#N)cc3F)CC2)c2nc(Cl)ccc21 [Example 379, 6-chloro-4-{4-[(4-cyano-2-fluorophenyl)methyl]piperazin-1-yl}-1-methyl-2-oxo-1,2-dihydro-1,5-naphthyridine-3-carbonitrile] | 7840 | > 240000 | 380 | – |
| C#CCn1c(=O)c([N+](=O)[O-])c(N2CCN(C(C)c3ccc(F)cc3)CC2)c2nc(C#N)ccc21 (racemic) [Example 135, 8-(4-(1-(4-fluorophenyl)ethyl)piperazin-1-yl)-7-nitro-6-oxo-5-(prop-2-yn-1-yl)-5,6-dihydro-1,5-naphthyridine-2-carbonitrile] | 340 | 1300 | 180 | – |
| Cn1c(=O)c(C#N)c(N2CCN(Cc3ccccc3NS(C)(=O)=O)CC2)c2nc(Br)ccc21 [Example 212, N-(2-((4-(6-bromo-3-cyano-1-methyl-2-oxo-1,2-dihydro-1,5-naphthyridin-4-yl)piperazin-1-yl)methyl)phenyl)methanesulfonamide] | 1140 | > 240000 | 2200 | – |
